Measurements published in patent US11572590B2, “Methods for evaluating tumor cell spheroids using 3D microfluidic cell culture device” (Dana-Farber Cancer Institute, Inc., priority 2017, dated 2023).
Where two headings read alike, the source gives them in different places.

Assays:
Assay in all cases: SelectScreen Kinase Profiling, single point inhibition and IC50 for off-target kinases
Format in all cases: biochemical
off-target kinases [1] = target: T1, off-target kinases (Homo sapiens, UniProt O43318); conditions: MAP3K7/MAP3K7IP1 (TAK1-TAB1), LanthaScreen Binding
T1 sequence (O43318 1-606): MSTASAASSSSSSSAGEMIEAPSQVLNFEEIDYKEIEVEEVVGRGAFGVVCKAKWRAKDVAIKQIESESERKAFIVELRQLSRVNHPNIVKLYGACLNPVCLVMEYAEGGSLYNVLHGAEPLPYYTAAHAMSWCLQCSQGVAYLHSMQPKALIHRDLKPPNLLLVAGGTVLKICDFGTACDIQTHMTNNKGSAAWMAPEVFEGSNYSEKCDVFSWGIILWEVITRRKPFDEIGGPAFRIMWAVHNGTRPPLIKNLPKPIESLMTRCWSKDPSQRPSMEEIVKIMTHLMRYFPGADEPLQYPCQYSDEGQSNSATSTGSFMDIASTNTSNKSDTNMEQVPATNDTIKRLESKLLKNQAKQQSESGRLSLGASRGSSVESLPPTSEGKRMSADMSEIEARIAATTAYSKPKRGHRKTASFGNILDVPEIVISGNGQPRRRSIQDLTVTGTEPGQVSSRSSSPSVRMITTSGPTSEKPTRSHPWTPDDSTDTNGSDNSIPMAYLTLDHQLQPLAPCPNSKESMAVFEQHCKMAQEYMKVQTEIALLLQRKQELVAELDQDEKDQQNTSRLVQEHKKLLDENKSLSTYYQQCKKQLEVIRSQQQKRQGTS

off-target kinases [2] = target: off-target kinases (Homo sapiens, UniProt P00519, G250E); conditions: ABL1 G250E, ATP Km app, ZLYTE
off-target kinases [3] = target: off-target kinases (Homo sapiens, UniProt P04629); conditions: NTRK1 (TRKA), ZLYTE, ATP Km app
off-target kinases [4] = target: off-target kinases (Homo sapiens, UniProt P06213); conditions: INSR, ZLYTE, ATP Km app
off-target kinases [5] = target: off-target kinases (Homo sapiens, UniProt P08581); conditions: MET (cMet), ZLYTE, ATP Km app
off-target kinases [6] = target: off-target kinases (Homo sapiens, UniProt P10721, N822K); conditions: KIT N822K, LanthaScreen Binding
off-target kinases [7] = target: off-target kinases (Homo sapiens, UniProt P31751); conditions: AKT2 (PKB beta), ZLYTE, ATP Km app
off-target kinases [8] = target: off-target kinases (Homo sapiens, UniProt Q02750, S218D/S222D); conditions: MAP2K1 (MEK1) S218D S222D (mutant), LanthaScreen Binding
off-target kinases [9] = target: off-target kinases (Homo sapiens, UniProt Q96RG2); conditions: PASK, ZLYTE, ATP Km app
off-target kinases [10] = target: off-target kinases (Homo sapiens, UniProt Q9UBF8); conditions: PI4KB (PI4K beta), Adapta, ATP Km app
off-target kinases [11] = target: off-target kinases (Homo sapiens, UniProt Q9UM73); conditions: ALK, ZLYTE, ATP Km app
Chain of off-target kinases (Homo sapiens, UniProt Q9UM73) (Q9UM73 19-1620): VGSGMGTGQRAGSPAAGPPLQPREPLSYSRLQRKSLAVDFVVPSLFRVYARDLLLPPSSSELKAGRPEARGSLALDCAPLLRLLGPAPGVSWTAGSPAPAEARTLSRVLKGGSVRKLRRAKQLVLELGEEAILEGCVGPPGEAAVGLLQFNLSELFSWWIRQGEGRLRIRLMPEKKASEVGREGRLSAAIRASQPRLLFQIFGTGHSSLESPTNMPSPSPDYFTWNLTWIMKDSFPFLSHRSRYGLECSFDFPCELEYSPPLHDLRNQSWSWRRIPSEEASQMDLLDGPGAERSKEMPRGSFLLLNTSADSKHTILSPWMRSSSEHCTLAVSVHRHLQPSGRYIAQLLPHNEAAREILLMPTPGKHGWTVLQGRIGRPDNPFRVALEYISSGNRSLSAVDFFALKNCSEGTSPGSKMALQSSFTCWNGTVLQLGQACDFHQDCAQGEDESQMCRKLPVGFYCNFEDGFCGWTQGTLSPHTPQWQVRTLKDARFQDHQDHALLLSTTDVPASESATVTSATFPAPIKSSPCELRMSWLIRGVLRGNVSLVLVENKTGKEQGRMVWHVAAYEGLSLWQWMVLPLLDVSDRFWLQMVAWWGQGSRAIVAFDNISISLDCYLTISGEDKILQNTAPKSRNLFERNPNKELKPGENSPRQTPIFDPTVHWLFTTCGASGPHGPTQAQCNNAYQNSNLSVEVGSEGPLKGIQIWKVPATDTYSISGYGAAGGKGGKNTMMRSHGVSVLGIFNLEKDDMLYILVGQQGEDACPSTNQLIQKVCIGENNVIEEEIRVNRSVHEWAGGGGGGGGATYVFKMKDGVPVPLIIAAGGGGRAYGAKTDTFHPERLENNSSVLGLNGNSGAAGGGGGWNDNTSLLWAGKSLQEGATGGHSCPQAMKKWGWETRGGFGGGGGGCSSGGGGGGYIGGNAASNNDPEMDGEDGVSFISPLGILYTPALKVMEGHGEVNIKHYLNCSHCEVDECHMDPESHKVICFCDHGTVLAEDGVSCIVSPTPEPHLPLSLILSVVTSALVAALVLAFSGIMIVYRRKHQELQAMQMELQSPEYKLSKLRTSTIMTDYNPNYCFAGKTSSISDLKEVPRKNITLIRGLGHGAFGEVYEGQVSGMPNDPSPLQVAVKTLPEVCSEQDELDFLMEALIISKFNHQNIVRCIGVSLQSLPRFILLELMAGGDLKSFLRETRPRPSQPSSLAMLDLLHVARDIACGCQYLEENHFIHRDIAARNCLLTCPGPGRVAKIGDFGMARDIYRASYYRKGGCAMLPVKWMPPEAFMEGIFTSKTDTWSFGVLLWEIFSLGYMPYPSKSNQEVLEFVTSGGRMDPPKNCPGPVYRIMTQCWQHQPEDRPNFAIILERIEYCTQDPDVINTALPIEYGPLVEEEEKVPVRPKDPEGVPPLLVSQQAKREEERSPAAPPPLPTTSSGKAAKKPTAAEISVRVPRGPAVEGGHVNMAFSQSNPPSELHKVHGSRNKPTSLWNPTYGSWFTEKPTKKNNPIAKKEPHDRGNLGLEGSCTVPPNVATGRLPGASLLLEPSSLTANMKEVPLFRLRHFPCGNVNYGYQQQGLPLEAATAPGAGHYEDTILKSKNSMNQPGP

Chain of off-target kinases (Homo sapiens, UniProt P08581) (P08581 25-1390): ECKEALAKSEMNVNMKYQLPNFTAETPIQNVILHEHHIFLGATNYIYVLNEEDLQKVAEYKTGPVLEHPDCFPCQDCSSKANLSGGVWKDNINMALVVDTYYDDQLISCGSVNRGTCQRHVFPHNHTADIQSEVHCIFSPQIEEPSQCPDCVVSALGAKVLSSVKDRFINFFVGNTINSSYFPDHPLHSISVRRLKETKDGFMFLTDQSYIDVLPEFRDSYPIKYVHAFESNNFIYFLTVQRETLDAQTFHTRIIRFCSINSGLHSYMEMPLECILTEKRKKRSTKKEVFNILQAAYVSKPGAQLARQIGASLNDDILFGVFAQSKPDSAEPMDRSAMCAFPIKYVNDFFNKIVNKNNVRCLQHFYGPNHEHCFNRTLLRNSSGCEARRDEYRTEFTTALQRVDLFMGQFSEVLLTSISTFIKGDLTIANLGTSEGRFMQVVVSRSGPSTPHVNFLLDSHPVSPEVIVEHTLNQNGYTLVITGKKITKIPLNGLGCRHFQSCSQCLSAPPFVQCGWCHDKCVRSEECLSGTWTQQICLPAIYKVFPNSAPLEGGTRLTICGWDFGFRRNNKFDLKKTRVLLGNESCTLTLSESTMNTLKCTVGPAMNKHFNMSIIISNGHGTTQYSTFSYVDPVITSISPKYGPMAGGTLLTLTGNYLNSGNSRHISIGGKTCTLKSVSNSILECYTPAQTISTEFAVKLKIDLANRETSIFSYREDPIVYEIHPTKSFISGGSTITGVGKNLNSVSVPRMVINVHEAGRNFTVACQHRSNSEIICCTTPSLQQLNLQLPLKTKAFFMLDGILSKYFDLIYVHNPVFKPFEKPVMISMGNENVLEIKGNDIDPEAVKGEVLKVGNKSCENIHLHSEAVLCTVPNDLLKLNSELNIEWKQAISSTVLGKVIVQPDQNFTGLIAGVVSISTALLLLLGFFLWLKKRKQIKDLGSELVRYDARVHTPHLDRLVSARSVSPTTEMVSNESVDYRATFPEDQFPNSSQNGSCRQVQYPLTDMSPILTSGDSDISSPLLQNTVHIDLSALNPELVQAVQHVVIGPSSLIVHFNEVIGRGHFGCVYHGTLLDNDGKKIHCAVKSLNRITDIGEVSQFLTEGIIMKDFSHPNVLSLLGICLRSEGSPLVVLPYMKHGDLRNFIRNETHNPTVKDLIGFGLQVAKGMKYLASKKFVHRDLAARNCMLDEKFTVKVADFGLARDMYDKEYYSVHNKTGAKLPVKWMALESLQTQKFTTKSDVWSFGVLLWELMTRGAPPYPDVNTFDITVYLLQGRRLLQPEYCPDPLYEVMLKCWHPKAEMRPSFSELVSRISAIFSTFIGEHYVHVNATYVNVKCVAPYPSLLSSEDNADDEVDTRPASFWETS
Chain of off-target kinases (Homo sapiens, UniProt P04629) (P04629 33-796): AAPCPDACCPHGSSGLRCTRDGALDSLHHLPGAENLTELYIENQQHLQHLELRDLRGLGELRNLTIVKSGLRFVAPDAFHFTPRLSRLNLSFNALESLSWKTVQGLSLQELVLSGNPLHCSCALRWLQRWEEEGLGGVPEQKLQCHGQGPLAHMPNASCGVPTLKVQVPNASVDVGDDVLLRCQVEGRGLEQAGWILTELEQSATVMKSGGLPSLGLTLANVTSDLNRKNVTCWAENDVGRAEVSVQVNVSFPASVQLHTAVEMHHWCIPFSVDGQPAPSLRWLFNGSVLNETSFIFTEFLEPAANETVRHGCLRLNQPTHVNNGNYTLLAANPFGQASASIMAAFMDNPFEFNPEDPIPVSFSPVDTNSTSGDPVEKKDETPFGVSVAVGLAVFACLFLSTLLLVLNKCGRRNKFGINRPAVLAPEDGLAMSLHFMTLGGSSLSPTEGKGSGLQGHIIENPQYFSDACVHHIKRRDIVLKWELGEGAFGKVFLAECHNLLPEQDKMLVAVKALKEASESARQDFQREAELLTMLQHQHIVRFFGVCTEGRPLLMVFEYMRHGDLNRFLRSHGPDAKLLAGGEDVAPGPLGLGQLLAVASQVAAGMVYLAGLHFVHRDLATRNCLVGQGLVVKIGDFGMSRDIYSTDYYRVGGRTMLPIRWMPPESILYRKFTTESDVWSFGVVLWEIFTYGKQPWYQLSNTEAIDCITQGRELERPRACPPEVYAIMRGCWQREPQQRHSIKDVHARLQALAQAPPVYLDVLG
Chain of off-target kinases (Homo sapiens, UniProt Q9UBF8) (Q9UBF8 whole entry): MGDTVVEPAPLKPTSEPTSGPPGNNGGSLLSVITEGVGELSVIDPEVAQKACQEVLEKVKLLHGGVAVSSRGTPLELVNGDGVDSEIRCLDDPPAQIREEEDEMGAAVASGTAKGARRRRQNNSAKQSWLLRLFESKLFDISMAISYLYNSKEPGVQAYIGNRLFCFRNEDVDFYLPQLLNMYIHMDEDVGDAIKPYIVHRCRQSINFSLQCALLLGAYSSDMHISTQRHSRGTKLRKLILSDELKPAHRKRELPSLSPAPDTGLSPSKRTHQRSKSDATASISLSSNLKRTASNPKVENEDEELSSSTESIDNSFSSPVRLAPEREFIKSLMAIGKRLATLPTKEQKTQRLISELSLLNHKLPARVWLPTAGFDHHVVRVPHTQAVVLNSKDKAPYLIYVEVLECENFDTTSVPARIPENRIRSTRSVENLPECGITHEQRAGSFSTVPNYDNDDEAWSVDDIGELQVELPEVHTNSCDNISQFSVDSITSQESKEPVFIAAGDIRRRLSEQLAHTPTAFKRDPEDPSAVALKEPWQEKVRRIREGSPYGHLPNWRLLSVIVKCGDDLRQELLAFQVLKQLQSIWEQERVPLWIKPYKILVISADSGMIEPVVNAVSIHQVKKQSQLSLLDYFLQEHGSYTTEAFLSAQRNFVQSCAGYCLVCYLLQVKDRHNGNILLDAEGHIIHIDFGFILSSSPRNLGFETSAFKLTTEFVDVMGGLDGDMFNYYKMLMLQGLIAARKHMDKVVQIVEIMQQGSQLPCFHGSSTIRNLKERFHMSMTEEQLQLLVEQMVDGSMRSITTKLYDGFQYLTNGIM
Chain of off-target kinases (Homo sapiens, UniProt Q02750, S218D/S222D) (Q02750 whole entry S218D/S222D): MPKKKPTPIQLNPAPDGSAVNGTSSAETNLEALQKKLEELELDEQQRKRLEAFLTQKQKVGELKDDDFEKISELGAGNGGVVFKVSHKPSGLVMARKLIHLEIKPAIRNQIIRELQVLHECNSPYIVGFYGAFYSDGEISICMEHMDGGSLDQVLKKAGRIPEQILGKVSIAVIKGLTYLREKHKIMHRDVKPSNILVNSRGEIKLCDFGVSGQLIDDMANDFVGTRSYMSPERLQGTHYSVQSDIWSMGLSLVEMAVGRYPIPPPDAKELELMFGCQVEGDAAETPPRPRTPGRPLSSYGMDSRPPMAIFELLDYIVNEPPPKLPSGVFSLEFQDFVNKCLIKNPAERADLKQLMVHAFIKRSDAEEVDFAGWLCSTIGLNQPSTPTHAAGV

N#Cc1cc(-c2ncnc(Nc3ccc(N4CCN(C5COC5)CC4)cc3)n2)ccc1OC1CCOCC1 [Compound 1, 5-(4-((4-(4-(oxetan-3-yl)piperazin-1-yl)phenyl)amino)-1,3,5-triazin-2-yl)-2-((tetrahydro-2H-pyran-4-yl)oxy)benzonitrile]
inhibition (off-target kinases [1]; read-out: % Inhibition 2): 22%
inhibition (off-target kinases [1]; read-out: % Inhibition Avg): 22%
inhibition (off-target kinases [2]; read-out: % Inhibition 1): 60%
inhibition (off-target kinases [2]; read-out: % Inhibition 2): 61%
inhibition (off-target kinases [2]; read-out: % Inhibition Avg): 60%
inhibition (off-target kinases [3]; read-out: % Inhibition 1): 16%
inhibition (off-target kinases [3]; read-out: % Inhibition 2): 20%
inhibition (off-target kinases [3]; read-out: % Inhibition Avg): 18%
inhibition (off-target kinases [4]; read-out: % Inhibition 1): -1%
inhibition (off-target kinases [4]; read-out: % Inhibition 2): 1%
inhibition (off-target kinases [4]; read-out: % Inhibition Avg): 0%
inhibition (off-target kinases [5]; read-out: % Inhibition 1): 30%
inhibition (off-target kinases [5]; read-out: % Inhibition 2): 33%
inhibition (off-target kinases [5]; read-out: % Inhibition Avg): 31%
inhibition (off-target kinases [6]; read-out: % Inhibition 1): 66%
inhibition (off-target kinases [6]; read-out: % Inhibition 2): 67%
inhibition (off-target kinases [6]; read-out: % Inhibition Avg): 66%
inhibition (off-target kinases [7]; read-out: % Inhibition 1): 3%
inhibition (off-target kinases [7]; read-out: % Inhibition 2): 2%
inhibition (off-target kinases [7]; read-out: % Inhibition Avg): 3%
inhibition (off-target kinases [8]; read-out: % Inhibition 1): 10%
inhibition (off-target kinases [8]; read-out: % Inhibition 2): 7%
inhibition (off-target kinases [8]; read-out: % Inhibition Avg): 8%
inhibition (off-target kinases [9]; read-out: % Inhibition 1): 3%
inhibition (off-target kinases [9]; read-out: % Inhibition 2): 1%
inhibition (off-target kinases [9]; read-out: % Inhibition Avg): 2%
inhibition (off-target kinases [10]; read-out: % Inhibition 1): 7%
inhibition (off-target kinases [10]; read-out: % Inhibition 2): 3%
inhibition (off-target kinases [10]; read-out: % Inhibition Avg): 5%
inhibition (off-target kinases [11]; read-out: % Inhibition 1): 4%
inhibition (off-target kinases [11]; read-out: % Inhibition 2): -2%
inhibition (off-target kinases [11]; read-out: % Inhibition Avg): 1%
